According to patent US20230340498A1, “COMPOSITIONS AND METHODS FOR INDUCIBLE ALTERNATIVE SPLICING REGULATION OF GENE EXPRESSION” (The Children's Hospital of Philadelphia, priority 2020, published 2023):

Assays:
[1] = test system: AAV9.X^on.eGFP; test: In vivo induction of AAV9.X^on.eGFP in mice by oral LMI070
Method: Animals and histology. Animal protocols were approved by The Children’s Hospital of Philadelphia Institutional Animal Care and Use Committee. Five to six-week-old male C57Bl6/j mice were obtained from Jackson Laboratories (Bar Harbor, ME, USA). AAV vectors (AAV9. X^on.eGFP or AAVPHBeB.X^on.eGFP; generated at the CHOP Research Vector Core) were administrated by retroorbital injection at 7-8 weeks of age with a total of 3E11 vg in 150 µL infused. After 4 weeks, a single dose of LMI070 (5 or 50 mg/kg, MedChemExpress HY-19620) or vehicle solution was administrated by oral gavage. After 18-24 h, mice used for biochemical or molecular studies were anesthetized and perfused with 0.9% cold saline mixed with 2-ml RNAlater (Ambion) solution. Brains and liver samples were collected, flash frozen in liquid nitrogen, and stored at -80 C until use. For immunohistochemistry studies, mice were perfused with 15 mL ice-cold 0.1 M PBS followed by 15 mL 4% paraformaldehyde. For brain sections, eGFP visualization was done by IHC using rabbit anti-GFP antibody (Invitrogen, 1:200) followed by Alexa488-conjugated goat anti-rabbit (Invitrogen, 1:500) and Alexa488-conjugated chicken anti-goat (Invitrogen, 1:500). Slices were mounted on Superfrost plus slides and coverslips mounted using fluoro-gel mounting media. Sections were analyzed using a DM6000B Leica microscope equipped with a L5 ET filter cube (ex:em of 470±20:525±15 nm and dichroic 495 nm), a 20X HC APO PLAN (N.A. 0.70) lens connected to a Sola Light Engine LED light source (Lumencor). Images were collected with a Hammatsu Orca flash4.0 monochrome camera controlled by Leica LAS X (v.3.0.3) software. Brain images represent a 7.98 µm thick z-stack deconvoluted by 3 iterations of the Blind algorithm.
RNA extraction, RT-PCR, and Splicing assays. Total RNA was extracted using Trizol (Life Technologies) according to the manufacturer’s protocol, with the exception of 1 µL Glycoblue (Life Technologies) in addition to the aqueous phase on the isopropanol precipitation step and a single wash with cold 70% ethanol. To determine HTT expression levels after transfection, RNA samples were quantified by spectrophotometry and subsequently cDNAs generated from […] of total RNA with random hexamers (TaqMan RT reagents, Applied Biosystems). To determine human HTT expression levels in HEK293 cells, we used TaqMan probes for human HTT and glyceraldehyde 3-phosphate dehydrogenase (GAPDH) mRNAs obtained from Applied Biosystems. Relative HTT gene expression was determined using the ddCt method. To determine splicing of the SMN2-on and Xon switches, 2 µg of total RNA from HEK293 cells or tissue samples was treated with DNAseI Free kit (Thermofisher) followed by cDNA generation using the High capacity cDNA kit (Thermofisher). Splicing was determined by PCR using the Phusion High-Fidelity polymerase (Thermofisher) and PCR products separated on a 2.5% agarose gel pre-stained with EtBr and spliced-in and spliced-out band densitometry performed using with the ChemiDoc Imaging System (BioRad) and Image Lab analysis software. Splicing induction from mouse tissues was determined using two custom TaqMan assays designed to determine total or LMI070-spliced in mRNA transcripts. The percentage of induction was determined by dividing the average Ct novel exon and average Ct Total, relative to control animals injected with AAV virus plus vehicle.
Western Blots. HEK293 cells were rinsed and lysed with Passive Lysis Buffer (PBL, Promega), protein concentrations determined using the DC protein assay (Bio-Rad), and 10-20 µg of protein loaded on a 3%-8% NuPAGE Tris-Acetate Gel in tris-acetate buffer (Novex Life Technologies) or a 4-12% NuPAGE TrisBis NuPAGE gels in MES buffer (Novex Life Technologies) to determine HTT, SaCas9, or eGFP protein levels, respectively, with β-catenin as loading control. […]

[2] = test system: AAV8.Xon.Epo; test: In vivo induction of AAV8.Xon.Epo in C57Bl6 mice; settings: 24 h after the last LMI070 dose
Text: To assess the applicability of Xon for liver targeted therapies, AAV8.Xon.Epo and AAV8.Xon.SaCas9 vectors were generated and delivered to C57Bl6 and Ai14 reporter mice, respectively (FIGS. 7A, 7C, 7F).

[3] = test system: HEK293 cells; test: Differential gene expression analysis (DESeq2) of LMI070 vs DMSO treated HEK293 cells; format: cell-based, Human
Method: Differential gene expression analysis was performed using DESeq2 to compare samples from the LMI070 and DMSO conditions (Love et al., 2014). To visualize the abundance of meaningfully differentially expressed genes, a volcano plot was generated with a .05 Benjamini-Hochberg adjusted p-value threshold and a 0.1 log fold change threshold.
The pseudoexons identified in LMI070 treated samples share a strong 3′ AGAGUA motif consistent with the previously identified U1 RNA binding site targeted by LMI070 (FIG. 2C) (Cheung et al., 2018). To experimentally validate the identified LMI070 induced splicing events, primer pairs binding the flanking exons of the top 5 candidate genes (FIGS. 2A and 2F-2J) were generated. […] The impact of LMI070 treatment on global gene expression was evaluated by assessing differential expression analysis.

[4] = spliced expression cassette relative to vehicle, LMI070 50 mg/kg
[5] = p < 0.05, Benjamin-Hochberg correction, LMI070 vs DMSO

CC1(C)CC(Oc2ccc(-c3ccc(-c4cn[nH]c4)cc3O)nn2)CC(C)(C)N1 [LMI070, 5-(1H-Pyrazol-4-yl)-2-(6-((2,2,6,6-tetramethylpiperidin-4-yl)oxy)pyridazin-3-yl)phenol]
eGFP expression in sections from liver ([1]; AAV9.X^on.eGFP 3E11 vg/mouse IV, single dose LMI070 5 or 50 mg/kg, 24 h later): notable eGFP expression | induction in liver after repeat dosing ([1]; LMI070 50 mg/kg oral, second dose after one week washout, histology, western blot, splicing assay): evident in liver after the first and the second dose | induction in skeletal muscle and heart ([1]; LMI070 50 mg/kg oral, histology and splicing assay): notable | protein levels and novel exon splicing versus dose ([1]; liver, LMI070 5 or 50 mg/kg): directly correlated to the LMI070 dose | relative level of induction in heart [1, 4]: ~ 3000 fold | relative level of induction in liver [1, 4]: ~1000 fold | induction of Mouse Epo and hematocrit levels [2]: Induction of Mouse Epo and hematocrit levels were detected | downregulated genes after filtering out low fold-change values ([3]; filtered <0.1 fold): 9 | upregulated genes after filtering out low fold-change values ([3]; filtered <0.1 fold): 5 | downregulated genes passing the threshold for significance [3, 5]: 24 | upregulated genes passing the threshold for significance [3, 5]: 6
